Source: patent US12084472B2 (Ardelyx, Inc., priority 2015, dated 2024)

Biological target: T1, human TGR5 (Homo sapiens, UniProt Q8TDU6)
T1 construct: expressed in transfected cells; host or cells: HEK293
T1 sequence (Q8TDU6 1-330): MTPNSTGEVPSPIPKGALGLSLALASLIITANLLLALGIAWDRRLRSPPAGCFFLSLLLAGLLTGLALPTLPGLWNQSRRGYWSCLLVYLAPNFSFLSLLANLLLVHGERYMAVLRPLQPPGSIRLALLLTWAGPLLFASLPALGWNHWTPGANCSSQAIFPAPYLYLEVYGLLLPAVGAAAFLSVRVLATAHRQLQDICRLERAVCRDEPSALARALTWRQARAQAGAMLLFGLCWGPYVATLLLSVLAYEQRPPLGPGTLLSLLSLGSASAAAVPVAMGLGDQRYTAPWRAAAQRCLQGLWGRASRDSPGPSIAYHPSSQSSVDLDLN
Experiment: Cell-based TGR5 assay (cAMP generation, HTRF)
Details: HEK293 cells stably transfected with human TGR5; cAMP by HTRF; 30 minutes at 37° C.; read-out: pEC50 Human TGR5 (converted)
Outline: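 First, compounds in 3-fold serial dilution were placed in HBSS with 10 mM HEPES pH 7.4 and 0.5 mM IBMX. Next, human TGR5-expressing HEK293 cells were added and incubated 30 min at 37° C. Finally, cAMP was detected by HTRF and pEC50 derived by logistic fitting.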

`CN(C)CC(=O)N(CCCCc1cc(Cl)c(COC2(c3cnccc3-c3ccccc3OC3CC3)CC2)cc1Cl)C[C@H](O)[C@@H](O)[C@H](O)[C@H](O)CO` [Compound I-203, N-{4-[2,5-dichloro-4-({1-[4-(2-cyclopropoxyphenyl)pyridin-3-yl]cyclopropoxy}methyl)phenyl]butyl}-2-(dimethylamino)-N-[(2S,3R,4R,5R)-2,3,4,5,6-pentahydroxyhexyl]acetamide] and `NC(=O)CN(C[C@H](O)[C@@H](O)[C@H](O)[C@H](O)CO)C(=O)CCCCc1cc(Cl)c(COC2(c3cnccc3-c3ccccc3OC3CC3)CC2)cc1Cl` (stereo in doubt) [Compound I-208, N-(carbamoylmethyl)-5-[2,5-dichloro-4-({1-[4-(2-cyclopropoxyphenyl)pyridin-3-yl]cyclopropoxy}methyl)phenyl]-N-[(2S,3R,4R,5R)-2,3,4,5,6-pentahydroxyhexyl]pentanamide] cannot be ordered by EC50: under 100 nM for the first, under 100 nM for the second.

First: CS(=O)(=O)NCCCCN(CCCCSc1ccc(Cl)c(CNC2(c3cnccc3-c3ccccc3OC3CC3)CC2)c1)C(=O)[C@@H](O)[C@@H](O)[C@H](O)[C@@H](O)CO [Compound I-582, (2S,3S,4R,5S)-N-[4-({4-chloro-3-[({1-[4-(2-cyclopropoxyphenyl)pyridin-3-yl]cyclopropyl}amino)methyl]phenyl}sulfanyl)butyl]-2,3,4,5,6-pentahydroxy-N-(4-methanesulfonamidobutyl) hexanamide]
Second: Cc1ccc(SCCCCN(CCCS(C)(=O)=O)C(=O)[C@@H](O)[C@@H](O)[C@H](O)[C@@H](O)CO)cc1COC1(c2cnccc2-c2ccccc2OC2CC2)CC1 [Compound I-561, (2S,3S,4R,5S)-N-(4-{[3-({1-[4-(2-cyclopropoxyphenyl)pyridin-3-yl]cyclopropoxy}methyl)-4-methylphenyl]sulfanyl}butyl)-2,3,4,5,6-pentahydroxy-N-(3-methanesulfonylpropyl)hexanamide]
The EC50 of the first is lower: under 100 nM for the first, 126 to 1000 nM for the second.

`O=CN(CCCCc1cc(Cl)c(COC2(c3cnccc3-c3ccccc3OC3CC3)CC2)cc1Cl)C[C@H](O)[C@@H](O)[C@H](O)[C@H](O)CO` [Compound I-80, N-(4-(2,5-dichloro-4-((1-(4-(2-cyclopropoxyphenyl)pyridin-3-yl)cyclopropoxy)methyl)phenyl)butyl)-N-((2S,3R,4R,5R)-2,3,4,5,6-pentahydroxyhexyl)formamide] and `CN(CCCCCc1cc(Cl)c(COC2(c3cnccc3-c3ccccc3OC3CC3)CC2)cc1Cl)C(=O)[C@@H](O)[C@@H](O)[C@H](O)[C@@H](O)CO` (stereo in doubt) [Compound I-228, (2S,3S,4R,5S)-N-{5-[2,5-dichloro-4-({1-[4-(2-cyclopropoxyphenyl)pyridin-3-yl]cyclopropoxy}methyl)phenyl]pentyl}-2,3,4,5,6-pentahydroxy-N-methylhexanamide] cannot be ordered by EC50: under 100 nM for the first, under 100 nM for the second.

First: O=C(CC1CCN(S(=O)(=O)c2ccc(Cl)c(COC3(c4cnccc4-c4ccccc4OC4CC4)CC3)c2)CC1)NC[C@H](O)[C@@H](O)[C@H](O)[C@H](O)CO [Compound I-441, 2-{1-[4-chloro-3-({1-[4-(2-cyclopropoxyphenyl)pyridin-3-yl]cyclopropoxy}methyl)benzenesulfonyl]piperidin-4-yl}-N-[(2S,3R,4R,5R)-2,3,4,5,6-pentahydroxyhexyl]acetamide]
Second: CCN(CCOCCNC(=O)N[C@@H](CO)[C@@H](O)[C@H](O)[C@H](O)CO)S(=O)(=O)c1ccc(Cl)c(COC2(c3cnccc3-c3ccccc3OC3CC3)CC2)c1 [Compound I-415, 1-(2-{2-[N-ethyl4-chloro-3-({1-[4-(2-cyclopropoxyphenyl)pyridin-3-yl]cyclopropoxy}methyl)benzenesulfonamido]ethoxy}ethyl)-3-[(2S,3R,4S,5R)-1,3,4,5,6-pentahydroxyhexan-2-yl]urea]
The EC50 of the first is higher: 126 to 1000 nM for the first, under 100 nM for the second.

`CC(CCCC(=O)NCCN1CCN(CC(=O)NC[C@H](O)[C@@H](O)[C@H](O)[C@H](O)CO)CC1)c1ccc(Cl)c(CNC2(c3cnccc3-c3ccccc3OC3CC3)CC2)c1` (stereo partly drawn) [Compound I-324, 5-{4-chloro-3-[({1-[4-(2-cyclopropoxyphenyl)pyridin-3-yl]cyclopropyl}amino)methyl]phenyl}-N-{2-[4-({[(2S,3R,4R,5R)-2,3,4,5,6-pentahydroxyhexyl]carbamoyl}methyl)piperazin-1-yl]ethyl}hexanamide] and `CC(CCCC(=O)N(CC(N)=O)C[C@H](O)[C@@H](O)[C@H](O)[C@H](O)CO)c1ccc(Cl)c(CNC2(c3cnccc3-c3ccccc3OC3CC3)CC2)c1` (stereo partly drawn) [Compound I-332, N-(carbamoylmethyl)-5-{4-chloro-3-[({1-[4-(2-cyclopropoxyphenyl)pyridin-3-yl]cyclopropyl}amino)methyl]phenyl}-N-[(2S,3R,4R,5R)-2,3,4,5,6-pentahydroxyhexyl]hexanamide] cannot be ordered by EC50: under 100 nM for the first, under 100 nM for the second.

`O=C(NCCCCCSc1ccc(Cl)c(COC2(c3cnccc3-c3ccccc3OC3CC3)CC2)c1)[C@@H](O)[C@@H](O)[C@H](O)[C@@H](O)CO` [Compound I-611, (2S,3S,4R,5S)-N-(5-{[4-chloro-3-({1-[4-(2-cyclopropoxyphenyl)pyridin-3-yl]cyclopropoxy}methyl)phenyl]sulfanyl}pentyl)-2,3,4,5,6-pentahydroxyhexanamide] and `CCCN(C[C@H](O)[C@@H](O)[C@H](O)[C@H](O)CO)C(=O)CCCSc1ccc(Cl)c(COC2(c3cnccc3-c3ccccc3OC3CC3)CC2)c1` [Compound I-666, 4-{[4-chloro-3-({1-[4-(2-cyclopropoxyphenyl)pyridin-3-yl]cyclopropoxy}methyl)phenyl]sulfanyl}-N-[(2S,3R,4R,5R)-2,3,4,5,6-pentahydroxyhexyl]-N-propylbutanamide] cannot be ordered by EC50: under 100 nM for the first, under 100 nM for the second.

Compared with `FC(F)(F)Oc1ccccc1-c1ccncc1C1(NCc2cc(Cl)ccc2Cl)CC1` [Compound I-11], `CSc1cc(CNC2(c3cnccc3-c3ccccc3OC3CC3)CC2)c(C)cn1` [Compound I-619, [4-(2-cyclopropoxyphenyl)pyridin-3-yl]-N-{[5-methyl-2-(methylsulfanyl)pyridin-4-yl]methyl}cyclopropan-1-amine] is lower in EC50: 126 to 1000 nM for the first, under 100 nM for the second.

First: CN(C)CCN(C[C@H](O)[C@@H](O)[C@H](O)[C@H](O)CO)C(=O)CCCSc1ccc(Cl)c(COC2(c3cnccc3-c3ccccc3OC3CC3)CC2)c1 [Compound I-662, 4-{[4-chloro-3-({1-[4-(2-cyclopropoxyphenyl)pyridin-3-yl]cyclopropoxy}methyl)phenyl]sulfanyl}-N-[2-(dimethylamino)ethyl]-N-[(2S,3R,4R,5R)-2,3,4,5,6-pentahydroxyhexyl]butanamide]
Second: CN(C[C@H](O)[C@@H](O)[C@H](O)[C@H](O)CO)C(=O)NS(=O)(=O)NCCCCc1cc(Cl)c(COC2(c3cnccc3-c3ccccc3OC3CC3)CC2)cc1Cl (stereo in doubt) [Compound I-194, 1-({4-[2,5-dichloro-4-({1-[4-(2-cyclopropoxyphenyl)pyridin-3-yl]cyclopropoxy}methyl)phenyl]butyl}sulfamoyl)-3-methyl-3-[(2S,3R,4R,5R)-2,3,4,5,6-pentahydroxyhexyl]urea]
The EC50 of the first is higher: 126 to 1000 nM for the first, under 100 nM for the second.

`O=C([C@@H](O)[C@@H](O)[C@H](O)[C@@H](O)CO)N(CCCSc1ccc(Cl)c(CNC2(c3cnccc3-c3ccccc3OC3CC3)CC2)c1)CC1CCOCC1` [Compound I-553, (2S,3S,4R,5S)-N-[3-({4-chloro-3-[({1-[4-(2-cyclopropoxyphenyl)pyridin-3-yl]cyclopropyl}amino)methyl]phenyl}sulfanyl)propyl]-2,3,4,5,6-pentahydroxy-N-(oxan-4-ylmethyl)hexanamide] showed an EC50 of 126 to 1000 nM.
